Results on one molecule are retold here after US20140243239A1, “MULTIPLEXED KINASE INHIBITOR BEADS AND USES THEREOF” (University of North Carolina at Chapel Hill, priority 2011, published 2014).

Test [1] concerns kinome (kinase binding to MIBs) of SUM159 cells. Description: MIB/MS kinome profiling of inhibitor-treated SUM159 cells. The format is cell-based, human. The text has this:
Multiplexed inhibitor bead affinity chromatography: Cells and tumors were lysed and harvested as previously described (Oppermann et al., 2009). Oppermann et al., 2009 Mol Cell Proteo 8 1751-1764. Briefly, lysates were brought to 1 M NaCl and passed through columns of washed inhibitor-conjugated beads (bisindoylmaleimide-X, SB203580, lapatinib, dasatinib, purvalanol B, VI16832, PP58) to isolate protein kinases from the lysates (see Supplemental Experimental Procedures for MIBs preparation). Kinase-bound inhibitor beads were washed with high-salt buffer and 0.1% SDS before elution in 0.5% SDS solution in high heat. Proteins were purified using chloroform/methanol extraction, resuspended in 50 mM ammonium bicarbonate (pH 8.0) or 50 mM HEPES (pH 8.0) for SILAC or iTRAQ respectfully. Samples were digested overnight at 37° C. with sequencing grade modified trypsin (Promega). iTRAQ labeling of digested peptides was carried out using iTRAQ 4-plex reagent (AB SCIEX) for 2 hrs at room temperature in the dark. Peptides were dried down, separated using Strong Cation Exchange Spin Columns, Mini and isolated with PepClean C-18 Spin Columns (Thermo Scientific).
LC-MS/MS analysis: MS and MS/MS data were acquired using a MALDI TOF/TOF 5800 (AB SCIEX). Peptides were analyzed using ProteinPilot Software Version 3.0 (AB SCIEX) and identification using UniProtKB/Swiss-Prot database (release Oct. 15, 2009). Proteins were only accepted when at least 1 unique peptide was identified at 99% confidence. ProteinPilot software 3.0 identified and quantified changes in kinase binding to MIBs utilizing the Pro Group Algorithm. […] For each protein ratio reported, a p-value is computed based on Student's t-distribution under the null hypothesis that the protein ratio is 1. MIB/MS analysis with cell lines was done in 2-3 independent experiments. A set of three independent experiments using SILAC labeled SUM159 cells treated with AZD6244 or DMSO was used to assess statistical significance and reproducibility of MIBs/MS to profile kinome response (Supplementary Methods).
Cells were lysed on ice for 20 minutes in lysis buffer containing 50 mM HEPES (pH 7.5), 0.5% Triton X-100, 150 mM NaCl, 1 mM EDTA, 1 mM EGTA, 10 mM sodium fluoride, 2.5 mM sodium orthovanadate, 50 ng/mL calyculin A, 1× protease inhibitor cocktail (Roche), and 1% each of phosphatase inhibitor cocktails 2 and 3 (Sigma). Cell lysate was sonicated (3×10 s) on ice and centrifuged for 15 minutes (13,000 rpm) at 4° C. and the supernatant was collected and syringe-filtered through a […] SFCA membrane. The filtered lysate (approximately 40 mg or protein per experiment) was brought to 1 M NaCl and pre-cleared by flowing over 500 μL of blocked and washed NHS-activated Sepharose 4 Fast Flow beads (GE Healthcare). The flow-through was collected and passed through a column of layered inhibitor-conjugated beads (Bisindoylmaleimide-X (50 μL), SB203580 (50 Lapatinib (100 μL), Dasatinib (100 μL), Purvalanol B (100 μL), VI16832 (100 μL), PP58 (100 4)) to isolate protein kinases from the lysates. Kinase-bound inhibitor beads were washed with 20 mL of high-salt buffer and 10 mL of low-salt buffer, each containing 50 mM HEPES (pH 7.5), 0.5% Triton X-100, 1 mM EDTA, 1 mM EGTA, and 10 mM sodium fluoride, and 1 M NaCl or 150 mM NaCl, respectively. A final wash of 1 mL 0.1% SDS was applied to the columns before elution in 1 mL of a 0.5% SDS solution in high heat. Elutions from all columns were combined and cysteines were alkylated by sequential incubations with DTT (final concentration 5 mM) for 20 minutes at 60° C. and iodoacetamide (final concentration 20 mM) for 30 minutes at room temperature in the dark. The elution was spin-concentrated to 100 μL and detergents were removed by a chloroform/methanol extraction. […]

A further test has as its system RTKs. Description: RTK tyrosine phosphorylation/expression in SUM159 cells (RTK arrays, western blot). The format is cell-based, human. Particulars: 5 μM AZD6244; 50 nM BEZ235 (FIG. 3H). The method, then: Western blotting and RTK arrays: Western blotting and RTK array analysis were performed as previously described (Amin et al., 2010). Amin et al. 2010 Sci Transl Med 2, 16ra17. Detailed methods and antibodies are provided in Supplemental Experimental Procedures.
Western blotting: Proteins from cell lysates were separated by SDS-PAGE chromatography, transferred to nitrocellulose membranes, and probed with the indicated primary antibodies. Antibodies recognizing pAKT (S473), pAKT (T308), AURA, pAXL (Y702), AXL, c-Myc, DDR1, EGFR, pERK1/2 (T202/Y204), pHER3 (Y1197), MAX, pMEK1/2 (S217/S221), MEK1/2, MKP3, pP70S6K (T389), pPDGFRβ (Y751), pPDGFRβ (Y1009), pPDGFR (Y857), PDGFRβ, pRAF (S338), pRSK1 (T359/S363), pVEGFR2 (Y1175), VEGFR2 were obtained from Cell Signaling Technology. Antibodies for Cyclin A2, Cyclin B1, Cyclin D1, ERK2, RAF, and pRAF (S259) were obtained from Santa Cruz Biotechnology. The antibody recognizing Bim was obtained from Chemicon. The antibody recognizing p-c-Myc (S62) was obtained from Abeam. Secondary HRP-anti-rabbit and HRP-anti-goat secondary antibodies were from Jackson Immunoresearch Laboratories and Santa Cruz Biotechnology, respectively. Western blots were visualized by incubation with SuperSignal West Pico Chemiluminescent Substrate (Thermo Scientific).
RTK arrays: Cells were harvested in RTK array lysis buffer containing 20 mM Tris-HCl (pH 8.0), 1% NP-40, 10% glycerol, 137 mM NaCl, 2 mM EDTA, 1×EDTA-free protease inhibitor cocktail (Roche), and 1% each of phosphatase inhibitor cocktails 1 and 2 (Sigma). After incubating on ice for 20 minutes, cell debris was pelleted at 4° C. Lysates (500 μg protein) were applied to R&D Systems Proteome Profiler™ Human Phospho-RTK antibody arrays. Washing and secondary antibody steps were performed according to the manufacturer“s instructions. RTK arrays were visualized by SuperSignal West Pico Chemiluminescent Substrate (Thermo Scientific).
(In general: A western blot detects proteins with antibodies after separation by electrophoresis.)

[2] abbreviates: 5 μM AZD6244, SILAC, TiO2 enrichment of MIB elutions.

For `Cn1cnc2c(F)c(Nc3ccc(Br)cc3Cl)c(C(=O)NOCCO)cc21` [AZD6244], in test [1] (setting [2]), the “peptides of MIB isolated kinases with decreased phosphorylation” value turned out to be 52 peptides, the “peptides of MIB isolated kinases with increased phosphorylation” value turned out to be 59 peptides and the “phosphopeptides of MIB isolated kinases with unchanged phosphorylation status” value stood at 365 phosphopeptides. Further, in test [1] (4, 12 and 24 h exposure to AZD6244), the “number of kinases with time-dependent MIB binding changes” value is recorded as “more than 140 kinases”. In addition, the “MEK1 binding to MIBs” value in test [1] (12-24 h, 5 μM AZD6244) is “remains largely inhibited”. Besides, the “MEK1 and MEK2, measured by loss of MIB binding” value in test [1] (4 h, 5 μM AZD6244) was “inhibited”. In addition, the “MEK2 binding to MIBs, AZD6244/DMSO ratio” value in test [1] (24 h, 5 μM AZD6244) worked out at 1. In test [1] (SUM159 and/or MDA-MB-231 cells in response to AZD6244), the “of the 40 highest expressed kinase transcripts of a patient claudin-low tumor, kinases dynamically regulated in binding to MIBs” value was 14 (24%). Further, in the test on RTKs, the RTK phosphorylation profile entry is “induced PDGFRβ, VEGFR2 and AXL phosphorylation”.
